The test deals with ROCK2 protein (Homo sapiens, UniProt O75116). Description: Degradation inducing activity of ROCK2 protein in HUVEC cells, Western blotting (Simple Western JESS). The format is cell-based. More on the design: endogenous in cells; host or cells: HUVEC (ATCC CRL-1730). Conditions: HUVEC, 24 h; for inhibition at 1 µM: degradation rate at 1 µM; for inhibition at 10 µM: degradation rate at 10 µM. A digest of the protocol: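 HUVEC cells treated 24 h with compound at 10 µM or 1 µM, then lysed; ROCK2 quantified by capillary Western (Simple Western JESS) using rabbit mAb D1B1, normalized to total loaded protein. Degradation rate (%) calculated relative to DMSO control set at 100%, binned A ≥75%, B 50–75%, C 25–50%, D <25%.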

SMILES strings stand for the structures.

ROCK2 protein, sequence (O75116 whole entry): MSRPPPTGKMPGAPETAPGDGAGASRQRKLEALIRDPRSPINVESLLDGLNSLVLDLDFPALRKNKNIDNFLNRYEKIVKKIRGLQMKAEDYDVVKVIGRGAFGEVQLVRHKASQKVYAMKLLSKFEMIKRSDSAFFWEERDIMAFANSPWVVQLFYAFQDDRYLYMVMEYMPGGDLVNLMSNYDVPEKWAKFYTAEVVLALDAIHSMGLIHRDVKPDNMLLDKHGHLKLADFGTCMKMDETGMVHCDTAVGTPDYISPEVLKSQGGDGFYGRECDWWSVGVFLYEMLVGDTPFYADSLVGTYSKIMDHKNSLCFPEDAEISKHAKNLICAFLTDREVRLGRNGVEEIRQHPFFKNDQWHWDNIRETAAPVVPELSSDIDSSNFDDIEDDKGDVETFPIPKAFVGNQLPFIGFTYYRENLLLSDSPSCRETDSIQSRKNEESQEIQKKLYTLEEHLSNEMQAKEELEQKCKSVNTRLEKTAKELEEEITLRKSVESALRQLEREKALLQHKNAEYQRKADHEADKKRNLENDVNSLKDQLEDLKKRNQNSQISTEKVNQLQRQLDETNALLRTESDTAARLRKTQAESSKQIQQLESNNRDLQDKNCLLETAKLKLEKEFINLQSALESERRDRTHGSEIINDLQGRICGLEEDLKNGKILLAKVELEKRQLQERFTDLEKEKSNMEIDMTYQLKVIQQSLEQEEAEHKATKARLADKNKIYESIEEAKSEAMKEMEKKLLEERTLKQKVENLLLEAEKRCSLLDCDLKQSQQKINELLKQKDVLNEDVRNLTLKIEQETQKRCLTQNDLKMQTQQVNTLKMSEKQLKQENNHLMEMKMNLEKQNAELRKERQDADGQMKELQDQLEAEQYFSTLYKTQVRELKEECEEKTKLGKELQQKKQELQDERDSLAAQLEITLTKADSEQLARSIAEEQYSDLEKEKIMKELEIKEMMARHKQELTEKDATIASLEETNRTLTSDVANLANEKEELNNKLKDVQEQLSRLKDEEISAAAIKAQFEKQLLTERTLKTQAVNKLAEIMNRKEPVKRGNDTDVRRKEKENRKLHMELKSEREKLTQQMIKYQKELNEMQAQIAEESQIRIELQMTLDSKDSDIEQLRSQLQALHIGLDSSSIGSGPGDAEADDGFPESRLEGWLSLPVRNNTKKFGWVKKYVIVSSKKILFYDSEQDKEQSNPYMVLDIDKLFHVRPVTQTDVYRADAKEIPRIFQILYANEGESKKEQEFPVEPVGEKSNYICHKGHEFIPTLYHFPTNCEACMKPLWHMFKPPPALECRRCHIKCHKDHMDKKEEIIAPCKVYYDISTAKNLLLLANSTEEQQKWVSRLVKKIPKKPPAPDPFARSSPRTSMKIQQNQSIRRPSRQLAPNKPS

For the compound `COC[C@H]1CN[C@H](C)CN1CC(=O)N1CC(C)(C)c2ncc(Cc3ccccc3OCCOCCOCCOCCOCCOCCOCCNC[C@@H](C(=O)Nc3ccc4cnccc4c3)c3ccccc3)cc21` [Example 83, (S)-N-(Isoquinolin-6-yl)-1-(2-((1-(2-((2R,5R)-2-(methoxymethyl)-5-methylpiperazin-1-yl)acetyl)-3,3-dimethyl-2,3-dihydro-1H-pyrrolo[3,2-b]pyridin-6-yl)methyl)phenoxy)-23-phenyl-3,6,9,12,15,18-hexaoxa-21-azatetracosan-24-amide], the inhibition at 1 µM was in the range of 50 to 75% and the inhibition at 10 µM is not below 75%.
Regarding `C[C@@H]1CN(CC(=O)N2CC(C)(C)c3ncc(Cc4ccc(F)cc4)cc32)[C@@H](CN(C)CCOCCOCCN[C@H](C)c2ccc(C(=O)Nc3ccncc3)cc2)CN1` [Example 2, 4-((R)-1-((2R,5R)-1-(2-(6-(4-Fluorobenzyl)-3,3-dimethyl-2,3-dihydro-1H-pyrrolo[3,2-b]pyridin-1-yl)-2-oxoethyl)-5-methylpiperazin-2-yl)-2-methyl-5,8-dioxa-2,11-diazatridecan-12-yl)-N-(pyridin-4-yl)benzamide], the inhibition at 1 µM was less than 25% and the inhibition at 10 µM is 50 to 75%.
`COC[C@H]1CN[C@H](C)CN1CC(=O)N1CC(C)(C)c2nc(CN(C)CCOCCOCCOCCOCCOCCOCCOCCN[C@H](C)c3ccc(C(=O)Nc4ccncc4)cc3)c(Cc3ccc(F)cc3)cc21` [Example 28, 4-((R)-1-(6-(4-Fluorobenzyl)-1-(2-((2R,5R)-2-(methoxymethyl)-5-methylpiperazin-1-yl)acetyl)-3,3-dimethyl-2,3-dihydro-1H-pyrrolo[3,2-b]pyridin-5-yl)-2-methyl-5,8,11,14,17,20,23-heptaoxa-2,26-diazaoctacosan-27-yl)-N-(pyridin-4-yl)benzamide] displayed an inhibition at 1 µM of 50 to 75% and an inhibition at 10 µM of less than 25%.
The matching figures for `COC[C@H]1CN[C@H](C)CN1CC(=O)N1CC(C)(C)c2nc(CN(C)CCOCCN[C@H](C)c3ccc(C(=O)Nc4ccncc4)cc3)c(Cc3ccc(F)cc3)cc21` [Example 22, 4-((R)-1-((2-(2-(((6-(4-Fluorobenzyl)-1-(2-((2R,5R)-2-(methoxymethyl)-5-methylpiperazin-1-yl)acetyl)-3,3-dimethyl-2,3-dihydro-1H-pyrrolo[3,2-b]pyridin-5-yl)methyl)(methyl)amino)ethoxy)ethyl)amino)ethyl)-N-(pyridin-4-yl)benzamide]: less than 25% and not below 75%.
Take `COC[C@H]1CN[C@H](C)CN1CC(=O)N1CC(C)(C)c2ncc(Cc3ccccc3OCCOCCOCCOCCOCCOCCOCCN[C@H](Cc3cccc(F)c3)C(=O)Nc3ccc(-c4ccncc4)cc3)cc21` [Example 76, (R)-2-(3-Fluorobenzyl)-23-(2-((1-(2-((2R,5R)-2-(methoxymethyl)-5-methylpiperazin-1-yl)acetyl)-3,3-dimethyl-2,3-dihydro-1H-pyrrolo[3,2-b]pyridin-6-yl)methyl)phenoxy)-N-(4-(pyridin-4-yl)phenyl)-6,9,12,15,18,21-hexaoxa-3-azatricosanamide]: the inhibition at 1 µM was less than 25% and the inhibition at 10 µM is 50 to 75%.
Taken in the same sequence, the figures for `COC[C@H]1CN[C@H](C)CN1CC(=O)N1CC(C)(C)c2nc(CN(C)CCOCCOCCOCCOCCOCCN[C@H](Cc3cccc(F)c3)C(=O)Nc3ccc(-c4ccncc4)cc3)c(Cc3ccc(F)cc3)cc21` [Example 33, (R)-21-(3-Fluorobenzyl)-1-(6-(4-fluorobenzyl)-1-(2-((2R,5R)-2-(methoxymethyl)-5-methylpiperazin-1-yl)acetyl)-3,3-dimethyl-2,3-dihydro-1H-pyrrolo[3,2-b]pyridin-5-yl)-2-methyl-N-(4-(pyridin-4-yl)phenyl)-5,8,11,14,17-pentaoxa-2,20-diazadocosan-22-amide] were less than 25% and not below 75%.
The matching figures for `COC[C@H]1CN[C@H](C)CN1CC(=O)N1CC(C)(C)c2ncc(Cc3cccc(OCCOCCNC[C@@H](C(=O)Nc4ccc5cnccc5c4)c4ccccc4)c3)cc21` [Example 57, (S)-N-(Isoquinolin-6-yl)-3-((2-(2-(3-((1-(2-((2R,5R)-2-(methoxymethyl)-5-methylpiperazin-1-yl)acetyl)-3,3-dimethyl-2,3-dihydro-1H-pyrrolo[3,2-b]pyridin-6-yl)methyl)phenoxy)ethoxy)ethyl)amino)-2-phenylpropanamide]: 25 to 50% and not below 75%.
With `COC[C@H]1CN[C@H](C)CN1CC(=O)N1CC(C)(C)c2ncc(Cc3cccc(OCCOCCOCCOCCOCCOCCNC[C@@H](C(=O)Nc4ccc5cnccc5c4)c4ccccc4)c3)cc21` [Example 61, (S)-N-(Isoquinolin-6-yl)-1-(3-((1-(2-((2R,5R)-2-(methoxymethyl)-5-methylpiperazin-1-yl)acetyl)-3,3-dimethyl-2,3-dihydro-1H-pyrrolo[3,2-b]pyridin-6-yl)methyl)phenoxy)-20-phenyl-3,6,9,12,15-pentaoxa-18-azahenicosan-21-amide], the inhibition at 1 µM was in the range of 50 to 75% and the inhibition at 10 µM is not below 75%.
The compound `COC[C@H]1CN[C@H](C)CN1CC(=O)N1CC(C)(C)c2ncc(Cc3ccccc3OCCOCCOCCOCCOCCN[C@H](Cc3cccc(F)c3)C(=O)Nc3ccc(-c4ccncc4)cc3)cc21` [Example 74, (R)-2-(3-Fluorobenzyl)-17-(2-((1-(2-((2R,5R)-2-(methoxymethyl)-5-methylpiperazin-1-yl)acetyl)-3,3-dimethyl-2,3-dihydro-1H-pyrrolo[3,2-b]pyridin-6-yl)methyl)phenoxy)-N-(4-(pyridin-4-yl)phenyl)-6,9,12,15-tetraoxa-3-azaheptadecanamide] came in with an inhibition at 1 µM of less than 25% and an inhibition at 10 µM of 50 to 75%.
The matching figures for `COC[C@H]1CN[C@H](C)CN1CC(=O)N1CC(C)(C)c2ncc(Cc3cccc(OCCOCCOCCOCCN[C@H](Cc4cccc(F)c4)C(=O)Nc4ccc(-c5ccncc5)cc4)c3)cc21` [Example 52, (R)-2-(3-Fluorobenzyl)-14-(3-((1-(2-((2R,5R)-2-(methoxymethyl)-5-methylpiperazin-1-yl)acetyl)-3,3-dimethyl-2,3-dihydro-1H-pyrrolo[3,2-b]pyridin-6-yl)methyl)phenoxy)-N-(4-(pyridin-4-yl)phenyl)-6,9,12-trioxa-3-azatetradecanamide]: 25 to 50% and 50 to 75%.
The matching figures for `C[C@@H]1CN(CC(=O)N2CC(C)(C)c3ncc(Cc4ccc(F)cc4)cc32)[C@@H](CN(C)CCOCCOCCOCCOCCOCCN[C@H](C)c2ccc(C(=O)Nc3ccncc3)cc2)CN1` [Example 5, 4-((R)-1-((2R,5R)-1-(2-(6-(4-Fluorobenzyl)-3,3-dimethyl-2,3-dihydro-1H-pyrrolo[3,2-b]pyridin-1-yl)-2-oxoethyl)-5-methylpiperazin-2-yl)-2-methyl-5,8,11,14,17-pentaoxa-2,20-diazadocosan-21-yl)-N-(pyridin-4-yl)benzamide]: 25 to 50% and less than 25%.

Usually inhibition stands for the share of the control response that was lost under treatment. The low end stands for a weak effect, the high end for a strong effect.

The record behind these values is patent EP4578856A1, “HETEROCYCLIC COMPOUND” (Ubience Inc., priority 2022, dated 2024).
